In article PMC8341922, “Glycosylated cyclophellitol-derived activity-based probes and inhibitors for cellulases” (RSC Chemical Biology, 2020):

Experiments:
HiCel7B [1] = target: T1, HiCel7B (Mycothermus thermophilus, UniProt P56680); assay: continuous fluorescence inhibition kinetics with 4MU-GG, kapp vs [inhibitor]; also intact MS and crystal structure; format: biochemical; details: covalent; 50 mM sodium phosphate pH 7, 25 °C; 50 μM 4MU-GG; corrected for substrate KM; nucleophile E197; read-out: HiCel7B / K I
T1 construct: gene CEL7B; purified enzyme, gift from Novozymes; deglycosylated for crystals
T1 sequence (P56680 1-402): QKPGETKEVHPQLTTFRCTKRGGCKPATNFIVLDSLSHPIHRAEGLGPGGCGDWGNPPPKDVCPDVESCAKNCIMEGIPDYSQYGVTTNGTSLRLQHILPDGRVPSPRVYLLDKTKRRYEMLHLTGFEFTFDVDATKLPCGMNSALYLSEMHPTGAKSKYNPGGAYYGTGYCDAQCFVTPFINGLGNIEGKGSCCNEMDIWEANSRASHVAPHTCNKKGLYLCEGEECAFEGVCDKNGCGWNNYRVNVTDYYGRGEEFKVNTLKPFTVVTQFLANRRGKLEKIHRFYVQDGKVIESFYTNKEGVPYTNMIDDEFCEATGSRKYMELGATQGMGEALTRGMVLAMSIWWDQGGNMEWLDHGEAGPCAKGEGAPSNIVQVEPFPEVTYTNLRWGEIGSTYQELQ
Excerpt: continuous fluorescence inhibition kinetics with 4MU-GG, kapp vs [inhibitor]; also intact MS and crystal structure on HiCel7B

HiCel7B [2] = target: T1, HiCel7B; assay: continuous fluorescence inhibition kinetics with 4MU-GG, kapp vs [inhibitor]; format: biochemical; details: covalent, 50 mM sodium phosphate pH 7, 25 °C, 50 μM 4MU-GG, corrected for substrate KM, read-out: HiCel7B / K I
Excerpt: continuous fluorescence inhibition kinetics with 4MU-GG, kapp vs [inhibitor] on HiCel7B

XynC = target: T2, XynC (Aspergillus niger, UniProt A2QFV7); assay: biotin-avidin pulldown, label-free LC-MS/MS quantification; format: binding; details: covalent; labelled compound; native secretome, 37 °C, 2 h
T2 construct: gene xlnC; native, in xylan-grown A. niger secretome; about 35 kDa band

CbhA = target: T3, CbhA (Aspergillus niger, UniProt Q9UVS9); assay: as above; format: binding; details: covalent; labelled compound; native secretome, 37 °C, 2 h
T3 construct: native, in xylan-grown A. niger secretome; about 60 kDa band
T3 sequence (Q9UVS9 18-452): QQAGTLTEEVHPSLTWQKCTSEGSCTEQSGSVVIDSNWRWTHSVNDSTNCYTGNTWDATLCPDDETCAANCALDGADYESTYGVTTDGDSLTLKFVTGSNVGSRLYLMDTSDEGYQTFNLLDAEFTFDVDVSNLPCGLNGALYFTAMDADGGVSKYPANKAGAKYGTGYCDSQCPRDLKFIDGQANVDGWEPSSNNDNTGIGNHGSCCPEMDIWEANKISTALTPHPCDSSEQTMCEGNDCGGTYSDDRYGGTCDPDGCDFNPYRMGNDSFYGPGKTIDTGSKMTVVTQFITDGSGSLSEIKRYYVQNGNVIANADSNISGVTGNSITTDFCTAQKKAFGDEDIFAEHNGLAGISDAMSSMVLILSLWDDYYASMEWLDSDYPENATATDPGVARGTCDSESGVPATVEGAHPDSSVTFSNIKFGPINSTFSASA

CbhB = target: T4, CbhB (Aspergillus niger, UniProt Q9UVS8); assay: as above; format: binding; details: covalent; labelled compound; native secretome, 37 °C, 2 h
T4 construct: native, in xylan-grown A. niger secretome; about 80 kDa band
T4 sequence (Q9UVS8 22-536): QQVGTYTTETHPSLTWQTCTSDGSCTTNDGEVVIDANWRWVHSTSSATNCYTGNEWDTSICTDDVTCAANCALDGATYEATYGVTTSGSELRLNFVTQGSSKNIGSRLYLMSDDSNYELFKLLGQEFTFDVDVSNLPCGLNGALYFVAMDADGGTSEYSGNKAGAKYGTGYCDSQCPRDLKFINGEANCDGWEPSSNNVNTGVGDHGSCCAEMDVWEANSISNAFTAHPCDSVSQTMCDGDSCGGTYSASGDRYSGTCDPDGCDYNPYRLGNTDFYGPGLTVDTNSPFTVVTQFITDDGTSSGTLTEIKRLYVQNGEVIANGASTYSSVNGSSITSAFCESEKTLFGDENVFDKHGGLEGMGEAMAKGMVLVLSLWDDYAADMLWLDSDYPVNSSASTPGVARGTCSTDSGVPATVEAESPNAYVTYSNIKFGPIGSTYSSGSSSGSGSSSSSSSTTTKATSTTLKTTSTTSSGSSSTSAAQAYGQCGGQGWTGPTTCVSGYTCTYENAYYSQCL

[3] = substrate: Cc1cc(=O)oc2cc(O[C@@H]3O[C@H](CO)[C@@H](O[C@@H]4O[C@H](CO)[C@@H](O)[C@H](O)[C@H]4O)[C@H](O)[C@H]3O)ccc12; assay: fluorescence, 4-methylumbelliferone release; format: biochemical, Mycothermus thermophilus; details: 50 mM sodium phosphate pH 7, 25 °C, corrected for inner filter effect
Excerpt: fluorescence, 4-methylumbelliferone release on HiCel7B | The KM value for the interaction of HiCel7B with 4MU-GG under the assay conditions

Q: With OC[C@@H]1C(O[C@@H]2O[C@H](CO)[C@@H](O)[C@H](O)[C@H]2O)C(O)C(O)[C@@H]2O[C@H]12 (stereo partly shown) [compound 1, Cellobiose configured cyclophellitol] as the molecule, how does the KI (inactivation) (HiCel7B [1]) read?
A: 31 ± 4 µM

Q: For OC[C@@H]1C(O[C@@H]2O[C@H](CO)[C@@H](O[C@@H]3O[C@H](CO)[C@@H](O)[C@H](O)[C@H]3O)[C@H](O)[C@H]2O)C(O)C(O)[C@@H]2O[C@H]12 (stereo partly shown) [compound 5, inhibitor 5], which KI (inactivation) (HiCel7B [2]; compound also hydrolysed internally by the enzyme) is on record?
A: 1.9 ± 0.3 µM

Q: Which KI (inactivation) (HiCel7B [2]) does the source give for [N-]=[N+]=NCCOCCOCCOCC(=O)N[C@H]1[C@H](O)[C@@H](O)[C@H](O[C@H]2[C@H](O)[C@@H](O)[C@@H]3O[C@@H]3[C@@H]2CO)O[C@@H]1CO [compound 13, probe 13] here?
A: 3.9 ± 0.3 µM

Q: Which “biotin-avidin pulldown, label-free LC-MS/MS quantification” value (XynC) does the source give for O=C(CCCC[C@@H]1SC[C@@H]2NC(=O)N[C@@H]21)NCCOCCOCCOCC(=O)N[C@H]1[C@H](O)[C@@H](O)[C@H](O[C@H]2[C@H](O)[C@@H](O)[C@@H]3O[C@@H]3[C@@H]2CO)O[C@@H]1CO [compound 15, probe 15] here?
A: relative to the negative control were CbhA, CbhB, and XynC

Q: What about the “biotin-avidin pulldown, label-free LC-MS/MS quantification” value (CbhA) of the same molecule?
A: detected at elevated levels in the probe 15-treated samples relative to the negative control were CbhA

Q: What about the “biotin-avidin pulldown, label-free LC-MS/MS quantification” value (CbhB) of the same molecule?
A: detected at elevated levels in the probe 15-treated samples relative to the negative control were CbhA, CbhB

B1: HiCel7B (Mycothermus thermophilus) (protein)
chain: T1 sequence (P56680 1-402)
notes: purified enzyme, gift from Novozymes; deglycosylated for crystals
Q: Which Km [3] does the source give for B1 here?
A: 76 µM
